Source: US6365582B1, “S-substitute 11β-benzaldoxime-estra-4, 9-diene-carbonic acid thiolesters, method for the production thereof and pharmaceutical preparations containing these compounds” (Jenapharm GmbH & Co. KG, priority 1998, dated 2002)

Key:
glucocorticoid receptor = target: T1, glucocorticoid receptor (Rattus norvegicus, UniProt P06536); assay: Receptor binding affinity, glucocorticoid receptor (competitive binding, thymus cytosol); conditions: Dexamethasone = 100%; thymus cytosol of adrenalectomized rat; tracer 3H-dexamethasone
T1 construct: receptors in the cytosol of animal target organs; from tissue; host or cells: thymus cytosol of the adrenalectomized rat
T1 sequence (P06536 1-795): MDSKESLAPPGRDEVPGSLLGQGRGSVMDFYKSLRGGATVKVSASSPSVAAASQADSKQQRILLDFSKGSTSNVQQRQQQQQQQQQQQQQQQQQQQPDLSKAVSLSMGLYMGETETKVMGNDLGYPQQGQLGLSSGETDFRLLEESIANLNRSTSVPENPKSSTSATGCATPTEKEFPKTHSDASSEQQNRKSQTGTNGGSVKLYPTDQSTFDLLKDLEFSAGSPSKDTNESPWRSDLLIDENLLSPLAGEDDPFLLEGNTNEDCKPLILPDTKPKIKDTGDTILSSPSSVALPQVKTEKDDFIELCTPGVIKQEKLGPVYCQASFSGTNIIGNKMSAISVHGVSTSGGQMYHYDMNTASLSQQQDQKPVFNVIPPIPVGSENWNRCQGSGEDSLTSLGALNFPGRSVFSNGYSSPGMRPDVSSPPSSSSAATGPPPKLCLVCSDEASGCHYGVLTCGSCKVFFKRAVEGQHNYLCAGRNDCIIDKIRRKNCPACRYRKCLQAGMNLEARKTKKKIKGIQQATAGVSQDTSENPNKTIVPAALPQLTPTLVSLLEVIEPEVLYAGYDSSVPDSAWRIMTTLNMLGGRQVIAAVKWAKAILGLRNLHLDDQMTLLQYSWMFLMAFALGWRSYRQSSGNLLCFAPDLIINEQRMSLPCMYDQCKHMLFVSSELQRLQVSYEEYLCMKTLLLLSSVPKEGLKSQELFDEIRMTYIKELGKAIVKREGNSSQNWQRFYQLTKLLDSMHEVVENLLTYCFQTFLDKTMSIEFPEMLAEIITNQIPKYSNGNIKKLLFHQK
Method: (§1) Measurement of the receptor binding affinity
(§2) The receptor binding affinity was determined by competitive binding of a specifically binding ^3H-labeled hormone (tracer) and the compound to be tested to receptors in the cytosol of animal target organs. Receptor saturation and reaction equilibrium were aimed at here. The following incubation conditions were chosen:
Glucocorticoid receptor: Thymus cytosol of the adrenalectomized rat. Thymi stored at −30° C.
Tracer: ^3H-dexamethasone, 20 nM.
Reference substance: dexamethasone.
(§3) After an incubation of receptor fraction, tracer and competitor for 18 h at 0-4° C., the bound and free steroid were separated by mixing in active carbon/dextran (1%/0.1%), centrifuging off and measuring the receptor-bound ^3H activity in the supernatant.

[1] = system: early pregnancy in the rat; assay: Inhibition of early pregnancy in the rat (early abortive action); type: in vivo; conditions: s.c., day 5-7 of pregnancy
Method: Inhibition of early pregnancy in the rat Female rats weighing 180-200 g were mated in the proestrus stage. On detection of sperm in the vaginal region on the next day, this is set as day 1 (d=1) of the pregnancy. The rats are treated with test substance or vehicle using 0.2 ml of benzoyl benzoate/castor oil (1+4 v/v) subcutaneously from day 5 to day 7 (d5-d7); autopsy is carried oust painlessly on day d9. The uterus horns was [sic] dissected and examined for intact or damaged nidation sites.

guinea pig in cycle = assay: Antiluteolysis test/ovulation inhibition test in the guinea pig in cycle; type: in vivo; conditions: for Prostaglandin / PGFM levels in the blood (in words): guinea pig
Method: Antiluteolysis test/ovulation inhibition test in the guinea pig in cycle: This test is based on the fact that progesterone at the end of the cycle stimulates uterine prostaglandin secretion. In the guinea pig, the inhibition of this function leads to a persistence of the corpora lutea (antiluteolysis). […] This test thus allows the therapy-relevant typing of progesterone antagonists as ? pure” or ? agonistic” substances. Guinea pigs are treated with the test substance on day 10 to day 17 of the cycle. The progesterone concentrations in the serum are determined on day 10 before substance treatment and on the following days until autopsy ([…]., Beier, […]., Crundel, M. et al. in Current Concepts in Fertility Regulation and Reproduction, (eds). Puri, C. P. and Van Look, P. F. H. (1994) 303-328).

progesterone receptor = target: T2, progesterone receptor (Oryctolagus cuniculus, UniProt P06186); assay: Receptor binding affinity, progesterone receptor (competitive binding, uterus cytosol); conditions: Progesterone = 100%; uterus cytosol of estradiol-primed rabbit; tracer 3H-ORG 2058
T2 construct: receptors in the cytosol of animal target organs; from tissue; host or cells: uterus cytosol of the estradiol-primed rabbit
T2 sequence (P06186 1-930): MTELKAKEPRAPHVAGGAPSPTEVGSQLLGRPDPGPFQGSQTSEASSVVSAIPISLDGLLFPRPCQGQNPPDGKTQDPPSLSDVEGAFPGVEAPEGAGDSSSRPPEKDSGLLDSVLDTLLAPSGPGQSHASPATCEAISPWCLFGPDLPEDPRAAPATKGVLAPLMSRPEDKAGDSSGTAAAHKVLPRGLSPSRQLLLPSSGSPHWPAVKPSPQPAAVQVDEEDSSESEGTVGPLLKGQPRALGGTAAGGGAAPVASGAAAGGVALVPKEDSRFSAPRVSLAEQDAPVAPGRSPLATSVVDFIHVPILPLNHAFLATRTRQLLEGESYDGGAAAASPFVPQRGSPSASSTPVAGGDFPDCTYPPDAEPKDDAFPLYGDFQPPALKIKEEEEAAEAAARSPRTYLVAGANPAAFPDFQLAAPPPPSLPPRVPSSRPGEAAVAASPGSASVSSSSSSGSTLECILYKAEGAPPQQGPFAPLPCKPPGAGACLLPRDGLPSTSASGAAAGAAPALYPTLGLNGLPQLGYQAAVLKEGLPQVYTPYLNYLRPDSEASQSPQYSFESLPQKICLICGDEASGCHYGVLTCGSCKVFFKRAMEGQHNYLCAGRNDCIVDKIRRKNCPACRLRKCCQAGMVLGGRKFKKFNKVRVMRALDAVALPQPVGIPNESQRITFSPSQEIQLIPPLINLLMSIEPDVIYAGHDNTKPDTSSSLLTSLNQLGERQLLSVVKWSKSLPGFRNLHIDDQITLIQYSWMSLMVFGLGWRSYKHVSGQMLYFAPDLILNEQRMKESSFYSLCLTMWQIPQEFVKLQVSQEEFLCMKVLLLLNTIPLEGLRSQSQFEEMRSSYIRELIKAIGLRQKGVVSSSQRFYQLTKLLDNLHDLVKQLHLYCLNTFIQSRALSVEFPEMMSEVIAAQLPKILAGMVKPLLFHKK
Method: as §1, §2
Progesterone receptor Uterus cytosol of the estradiol-primed rabbit, stored at −30° C.
Buffer for homogenization and incubation: TED buffer 20 mM tris/HCl, pH [sic]=7.4; 1 mM ethylenediamine tetracetate, 2 mM dithiothreitol) containing 250 mM sucrose.
Reference substance: progesterone.
as §3

| SMILES | Relative molar binding affinity RBA (%) to the glucocorticoid receptor (glucocorticoid receptor) | Complete inhibition of pregnancy % ([1]; 0.3 mg/(animal × day)) | Complete inhibition of pregnancy % ([1]; 1 mg/(animal × day)) | Complete inhibition of pregnancy % ([1]; 3 mg/(animal × day)) | Inhibition of luteolysis / antiluteolytic activity (in words) (guinea pig in cycle; guinea pig in cycle) | Relative molar binding affinity RBA (%) to the progesterone receptor (progesterone receptor) | Prostaglandin / PGFM levels in the blood (in words) (guinea pig in cycle) | Effect on the vaginal epithelium (in words) (guinea pig in cycle; guinea pig in cycle) |
| --- | --- | --- | --- | --- | --- | --- | --- | --- |
| CC#C[C@]1(O)CC[C@H]2[C@@H]3CCC4=CC(=O)CCC4=C3[C@@H](c3ccc(N(C)C)cc3)C[C@@]21C [RU 486, mifepristone, reference compound] | 685% | 0% | 20% | 100% | slightly antiluteolytically active | – | – | – |
| CN(C)c1ccc([C@H]2C[C@]3(C)[C@@H](CC[C@]3(O)CCCO)[C@@H]3CCC4=CC(=O)CCC4=C32)cc1 [ZK 98299, onapristone, reference compound] | 39% | – | – | – | – | 22% | very low prostaglandin levels in the blood | induces proliferation and keratinization of the vaginal epithelium |
| CC(=O)[C@H]1CC[C@H]2[C@@H]3CCC4=CC(=O)CC[C@]4(C)[C@H]3CC[C@]12C [progesterone] | – | – | – | – | – | – | raised prostaglandin F metabolite levels | – |
